Source: patent US20230398130A1, “METHODS AND COMPOSITIONS FOR DIFFERENTIATING STEM CELLS” (Massachusetts Institute of Technology, priority 2020, published 2023)

Key:
ISC-enriched organoids [1] = assay: Primary screen, 384-well 2.5-D organoid differentiation (ENR+CD, 6 days): basal lysozyme secretion (LYZ.NS); assay type: cell-based, murine; conditions: primary screen; for Dose.FC.LYZ.NS (log 2 fold change): vs plate median
Description: (§1) High-throughput screening.

ISC-enriched organoids [2] = assay: Primary screen, 384-well 2.5-D organoid differentiation (ENR+CD, 6 days): carbachol-induced lysozyme secretion (LYZ.S); assay type: cell-based, murine; conditions: primary screen, vs plate median
Description: as §1

ISC-enriched organoids [3] = assay: Primary screen, 384-well 2.5-D organoid differentiation (ENR+CD, 6 days, Target Selective Inhibitor Library, vs whole-plate median): ATP (CellTiter-Glo 3D, CTG); conditions: primary screen; for Dose.FC.CTG (log 2 fold change): vs plate median

| Structure (SMILES) | Z.LYZ.NS (standard z score) (ISC-enriched organoids [1]; Dose 0.08 uM) | Dose.FC.LYZ.NS (log 2 fold change) (ISC-enriched organoids [1]; Dose 0.08 uM) | Z.LYZ.NS (standard z score) (ISC-enriched organoids [1]; Dose 0.40 uM) | Dose.FC.LYZ.NS (log 2 fold change) (ISC-enriched organoids [1]; Dose 0.40 uM) | Z.LYZ.NS (standard z score) (ISC-enriched organoids [1]; Dose 2.00 uM) | Dose.FC.LYZ.NS (log 2 fold change) (ISC-enriched organoids [1]; Dose 2.00 uM) | Z.LYZ.NS (standard z score) (ISC-enriched organoids [1]; Dose 10.00 uM) | Dose.FC.LYZ.NS (log 2 fold change) (ISC-enriched organoids [1]; Dose 10.00 uM) | Dose.FC.LYZ.S (log 2 fold change) (ISC-enriched organoids [2]; Dose 0.08 uM) | Dose.FC.LYZ.S (log 2 fold change) (ISC-enriched organoids [2]; Dose 0.40 uM) | Dose.FC.LYZ.S (log 2 fold change) (ISC-enriched organoids [2]; Dose 2.00 uM) | Dose.FC.LYZ.S (log 2 fold change) (ISC-enriched organoids [2]; Dose 10.00 uM) | Z.CTG (standard z score) (ISC-enriched organoids [3]; Dose 0.08 uM) | Dose.FC.CTG (log 2 fold change) (ISC-enriched organoids [3]; Dose 0.08 uM) | Z.CTG (standard z score) (ISC-enriched organoids [3]; Dose 0.40 uM) | Dose.FC.CTG (log 2 fold change) (ISC-enriched organoids [3]; Dose 0.40 uM) | Z.CTG (standard z score) (ISC-enriched organoids [3]; Dose 2.00 uM) | Dose.FC.CTG (log 2 fold change) (ISC-enriched organoids [3]; Dose 2.00 uM) | Z.CTG (standard z score) (ISC-enriched organoids [3]; Dose 10.00 uM) | Dose.FC.CTG (log 2 fold change) (ISC-enriched organoids [3]; Dose 10.00 uM) |
| --- | --- | --- | --- | --- | --- | --- | --- | --- | --- | --- | --- | --- | --- | --- | --- | --- | --- | --- | --- | --- |
| Cc1nnc(C(=O)NC(C)(C)c2nc(C(=O)NCc3ccc(F)cc3)c(O)c(=O)n2C)o1 [Raltegravir (MK-0518)] | 1.627 | 0.187 | 0.302 | 0.035 | 0.254 | 0.029 | 0.366 | 0.042 | 0.137 | 0.037 | 0.122 | 0.183 | 0.258 | 0.108 | 0.224 | 0.094 | 0.471 | 0.197 | 0.407 | 0.170 |
| CO[C@H]1C[C@@H]2CC[C@@H](C)[C@@](O)(O2)C(=O)C(=O)N2CCCC[C@H]2C(=O)O[C@H]([C@H](C)C[C@@H]2CC[C@@H](OP(C)(C)=O)[C@H](OC)C2)CC(=O)[C@H](C)/C=C(\C)[C@@H](O)[C@@H](OC)C(=O)[C@H](C)C[C@H](C)/C=C/C=C/C=C/1C [Ridaforolimus (Deforolimus, MK-8669)] | 0.041 | 0.005 | 1.012 | 0.116 | 0.646 | 0.074 | 0.237 | 0.027 | 0.050 | 0.069 | 0.019 | 0.039 | 1.011 | 0.423 | 0.157 | 0.066 | 0.659 | 0.276 | 0.505 | 0.211 |
| COc1cc(OC)c(/C=C/S(=O)(=O)Cc2ccc(OC)c(NCC(=O)O)c2)c(OC)c1 [Rigosertib (ON-01910)] | −2.105 | −0.242 | −1.831 | −0.210 | −2.306 | −0.265 | −2.107 | −0.242 | −0.309 | −0.355 | −0.340 | −0.330 | −2.162 | −0.905 | −3.069 | −1.285 | −3.984 | −1.668 | −2.022 | −0.847 |
| Cc1nn(-c2ccccc2)c(C)c1/C=N/N1CCN(Cc2ccccc2)CC1 [SANT-1] | 0.485 | 0.056 | 0.002 | 0.000 | 1.528 | 0.175 | −0.430 | −0.049 | 0.112 | 0.024 | 0.101 | −0.120 | 0.736 | 0.308 | 0.186 | 0.078 | 0.327 | 0.137 | −0.100 | −0.042 |
| CCn1c(N)c(C(=O)NC)c(=O)c2ccc(C#C[C@@](C)(O)COC)nc21 [SAR131675] | 0.483 | 0.055 | 0.774 | 0.089 | 0.181 | 0.021 | −0.766 | −0.088 | 0.148 | 0.096 | 0.026 | 0.000 | 0.419 | 0.175 | −0.201 | −0.084 | 0.169 | 0.071 | 0.149 | 0.062 |
| C[S+]([O-])c1ccc(-c2nc(-c3ccc(F)cc3)c(-c3ccncc3)[nH]2)cc1 (stereo not drawn) [SB203580] | 0.805 | 0.092 | 1.109 | 0.127 | 0.453 | 0.052 | 0.199 | 0.023 | 0.148 | 0.098 | 0.077 | 0.069 | 0.479 | 0.201 | 0.356 | 0.149 | 0.567 | 0.237 | 0.435 | 0.182 |
